Test results: patent US20210084900A1, “Substituted 5-(haloalkyl)-5-hydroxy-isoxazoles for Combating Phytopathogenic Fungi” (BASF SE, priority 2017, published 2021)

Assays:
Sclerotinia sclerotiorum = assay: Preventative fungicidal control of rape stem rot on soy beans (glass house trial 5); format: in vivo; conditions: 300 ppm, soy bean, untreated plants 90% diseased leaf area
Description: (§1) Spray solutions were prepared in several steps. A mixture was prepared of acetone and/or dimethylsulfoxide and the wetting agent/emulsifier Wettol, which is based on ethoxylated alkylphenoles, in a relation (volume) solvent-emulsifier of 99 to 1 was added to 25 mg of the compound to give a total of 5 ml. Water was then added to a total volume of 100 ml. This stock solution was diluted with the described solvent-emulsifier-water mixture to the given concentration.
5. Preventative Fungicidal Control of Rape Stem Rot on Soy Beans Caused by (Sclerotinia scierotiorum
Young seedlings of soy beans were grown in pots. These plants were sprayed to run-off with an aqueous suspension, containing the concentration of active ingredient or mixture mentioned in the table below. The next day the treated plants were inoculated: Rye and millet grains were infected with Sclerotinia sclerotiorum. After the infection the grains were air dried for a week. The grains were powdered with a mixer. A small amount of powder was brought onto the soy bean (leaves). Then the trial plants were cultivated for 7 days in a greenhouse chamber at 23° C. and a relative humidity between 80 an 85%. The extent of fungal attack on the leaves was visually assessed with a classification method: 0, 33, 50, 67 and 100% disease of leaf area and stem.

Puccinia recondita = assay: Preventative control of brown rust on wheat (glass house trial 6); format: in vivo; conditions: 300 ppm, preventative (inoculation 7 days after spraying), untreated plants 100% diseased leaf area
Description: as §1
6. Preventative Control of Brown Rust on Wheat Caused by Puccinia recondita
The first two developed leaves of pot-grown wheat seedling were sprayed to run-off with an aqueous suspension, containing the concentration of active ingredient or their mixture as described below. Seven days later the plants were inoculated with spores of Puccinia recondita. To ensure the success the artificial inoculation, the plants were transferred to a humid chamber without light and a relative humidity of 95 to 99% and 20 to 24° C. for 24 hours. Then the trial plants were cultivated for 6 days in a greenhouse chamber at 20 to 24° C. and a relative humidity between 65 and 70%. The extent of fungal attack on the leaves was visually assessed as % diseased leaf area.

Phakopsora pachyrhizi = assay: Protective control of soy bean rust on soy beans, inoculation 1 day after spraying (glass house trial 2); format: in vivo; conditions: 600 ppm, protective (1 day), untreated plants 100% diseased leaf area
Description: as §1
2. Protective Control of Soy Bean Rust on Soy Beans Caused by Phakopsora pachyrhizi
Leaves of pot-grown soy bean seedlings were sprayed to run-off with an aqueous suspension, containing the concentration of active ingredient or their mixture as described below. The plants were allowed to air-dry. The trial plants were cultivated for 1 day in a greenhouse chamber at 23 to 27° C. and a relative humidity between 60 and 80%.Then the plants were inoculated with spores of Phakopsora pachyrhizi. To ensure the success the artificial inoculation, the plants were transferred to a humid chamber with a relative humidity of about 95% and 20 to 24° C. for 24 hours. The trial plants were cultivated for fourteen days in a greenhouse chamber at 23 to 27° C. and a relative humidity between 60 and 80%. The extent of fungal attack on the leaves was visually assessed as % diseased leaf area.

melting point	Structure (SMILES)	diseased leaf area (Sclerotinia sclerotiorum)	diseased leaf area (Puccinia recondita)	diseased leaf area (Phakopsora pachyrhizi)
–	CC(=O)OC1(C(F)(F)F)CC(c2ccc(CN(C)C(=O)C3CC3)cc2)=NO1 (centres unmarked) [Ex-15]	0%	12%	0%
–	O=C(Nc1ccccc1)c1ccc(C2=NOC(OC(=O)C3CCCO3)(C(F)(F)F)C2)cc1 (centres unmarked) [Ex-28]	0%	–	0%
207 °C	O=C(NCc1ccc(C2=NOC(O)(C(F)(F)F)C2)cc1)C1CC1 (centres unmarked) [Ex-4, N-[[4-[5-hydroxy-5-(trifluoromethyl)-4H-isoxazol-3-yl]phenyl]methyl]cyclopropanecarboxamide]	–	–	–
217 °C	O=C(Nc1ccccc1)c1ccc(C2=NOC(O)(C(F)(F)F)C2)cc1 (centres unmarked) [Ex-7, 4-[5-Hydroxy-5-(trifluoromethyl)-4H-isoxazol-3-yl]-N-phenyl-benzamide]	–	–	–
–	CC(=O)OC1(C(F)(F)F)CC(c2ccc(CNC(=O)C3CC3)cc2)=NO1 (centres unmarked) [Ex-18]	0%	–	0%
–	COC1(C(F)(F)F)CC(c2ccc(CNC(=O)C3CC3)cc2)=NO1 (centres unmarked) [Ex-19]	–	–	0%
–	O=C(Nc1ccccc1)c1ccc(C2=NOC(OC(=O)N3CCOCC3)(C(F)(F)F)C2)cc1 (centres unmarked) [Ex-27]	0%	–	–
–	CNC(=O)c1ccc(C2=NOC(OC(=O)C3CC3)(C(F)(F)F)C2)cc1 (centres unmarked) [Ex-42]	–	–	0%
–	COC1(C(F)(F)F)CC(c2ccc(CN(C)C(=O)C3CC3)cc2)=NO1 (centres unmarked) [Ex-13]	–	–	0%
–	CC(C)CC(=O)OCOC1(C(F)(F)F)CC(c2ccc(C(=O)Nc3ccccc3)cc2)=NO1 (centres unmarked) [Ex-40]	–	–	0%
–	CN(Cc1ccc(C2=NOC(O[Si](C)(C)C)(C(F)(F)F)C2)cc1)C(=O)C1CC1 (centres unmarked) [Ex-14]	–	–	0%
–	CN(C(=O)c1ccc(C2=NOC(O)(C(F)(F)F)C2)cc1)c1ccccc1 (centres unmarked) [Ex-2]	0%	–	0%
–	O=C(Nc1ccccc1)c1ccc(C2=NOC(OC(=O)N3CCCC3)(C(F)(F)F)C2)cc1 (centres unmarked) [Ex-26]	0%	–	–
–	CCOCC(=O)OC1(C(F)(F)F)CC(c2ccc(C(=O)Nc3ccccc3)cc2)=NO1 (centres unmarked) [Ex-30]	0%	–	0%
